Results as given in patent publication US7799907B2, “Method for the preparation of 2′-deoxy-2′,2′-difluorocytidine” (Hanmi Pharm. Co., Ltd, priority 2004, dated 2010).

Experiment: Stability of moisture content of the hemihydrate and dihydrate forms on storage
Type: physicochemical
Settings: for stability for the moisture content changes: under the conditions shown in Table 1
[1] = 40° C. under 75% relative humidity, 1 day
[2] = 40° C. under 75% relative humidity, 7 days
[3] = 40° C. under 75% relative humidity, 14 days

| Compound | Moisture content (%) [1] [%] | Moisture content (%) [2] [%] | Moisture content (%) [3] [%] | Moisture content (%) (Air, 1 day) | Moisture content (%) (Air, 7 days) | Moisture content (%) (Air, 14 days) | stability for the moisture content changes |
| --- | --- | --- | --- | --- | --- | --- | --- |
| Nc1ccn([C@@H]2O[C@H](CO)[C@@H](O)C2(F)F)c(=O)n1.O.O [Dihydrate, 2′-Deoxy-2′,2′-difluorocytidine dihydrate] | 12.1 | 11.9 | 11.7 | 11.6 | 11.8 | 11.7 | stable |
| 2′-Deoxy-2′,2′-difluorocytidine hemihydrate | 3.7 | 3.8 | 3.8 | 3.6 | 3.7 | 3.4 | stable |
